In patent publication US11541062B2, “Methods of treating advanced prostate cancer” (priority 2017, dated 2023):
Changes are numbered by the printed parent chain.

What was measured:
[1] = Serum concentration of androgen analogs after intravenous injection, by LC/MS; format: in vivo; conditions: mouse, 50 ug, 50 μg intravenous, C57/B6 mice
Description: FIG. 8. C57B6 mice were intravenously injected with 50 μg of IVMDHT, IVNDHT, and IVDHT. Blood samples were collected at 1, 2, 4, and 8 hours (n=4) and the serum concentrations of the compounds were analyzed by liquid chromatography mass spectrometry. With reference to 2 hours on FIG. 8, the upper line represents IVMDHT; the middle line represents IVNDHT, and the lower line represents IVDHT.
To assess the stability of different androgen analogs, 50 μg of IVDHT, IVNDHT, and IVMDHT was intravenously injected into C57/B6 mice. Blood samples were collected from the mice at 1, 2, 4, and 8 hours and analyzed by liquid chromatography/mass spectrometry (n=4).

endogenous AR [2] = biological target: T1, endogenous AR (Homo sapiens, UniProt P10275, T878A); test: AR nuclear translocation, immunostaining with anti-AR antibody and DAPI in LNCaP cells; format: cell-based; conditions: 48 hours without androgens, then 8 hours with compound
T1 construct: translocate endogenous AR into the nucleus in LNCaP cells; endogenous in cells; host or cells: LNCaP
T1 sequence (P10275 1-920 T878A): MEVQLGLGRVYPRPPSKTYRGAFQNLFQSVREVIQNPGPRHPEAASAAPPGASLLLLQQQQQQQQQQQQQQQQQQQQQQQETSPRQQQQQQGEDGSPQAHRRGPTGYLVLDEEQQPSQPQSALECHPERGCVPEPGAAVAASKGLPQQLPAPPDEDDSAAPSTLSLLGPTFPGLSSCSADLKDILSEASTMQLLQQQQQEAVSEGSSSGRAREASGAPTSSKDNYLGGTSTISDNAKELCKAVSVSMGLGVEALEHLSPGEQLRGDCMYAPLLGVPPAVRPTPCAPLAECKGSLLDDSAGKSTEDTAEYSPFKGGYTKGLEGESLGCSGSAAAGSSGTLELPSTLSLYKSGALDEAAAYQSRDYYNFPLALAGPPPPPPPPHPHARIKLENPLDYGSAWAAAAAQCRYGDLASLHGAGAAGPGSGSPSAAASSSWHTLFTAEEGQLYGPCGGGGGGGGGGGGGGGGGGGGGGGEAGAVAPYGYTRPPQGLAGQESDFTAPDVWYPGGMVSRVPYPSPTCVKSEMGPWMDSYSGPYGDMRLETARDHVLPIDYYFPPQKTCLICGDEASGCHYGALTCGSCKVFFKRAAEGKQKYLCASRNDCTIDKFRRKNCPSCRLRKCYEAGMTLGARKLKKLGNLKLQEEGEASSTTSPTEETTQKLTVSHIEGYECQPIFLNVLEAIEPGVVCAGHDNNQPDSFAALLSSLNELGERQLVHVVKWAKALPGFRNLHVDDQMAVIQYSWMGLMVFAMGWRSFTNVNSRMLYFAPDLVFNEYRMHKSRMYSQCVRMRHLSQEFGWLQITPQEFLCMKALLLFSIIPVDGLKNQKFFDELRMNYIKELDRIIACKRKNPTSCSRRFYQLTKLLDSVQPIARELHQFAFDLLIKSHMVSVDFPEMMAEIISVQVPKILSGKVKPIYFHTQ
Description: (§1) Cells were immunostained with an anti-AR antibody and 4′,6-diamidino-2-phenylindole (DAPI) to determine the nuclear location of the AR. FIG. 5D: CV-1 cells were transiently transfected in 48-well plates with 100 ng of luciferase reporter plasmid regulated by 3 androgen response elements (3ARE), 25 ng of pSV40 β-gal, or with or without 20 ng of the human AR expression vector. […] Then whole cell lysates were prepared to assess luciferase and β-gal activities. Transfection experiments were repeated three times in triplicate. Relative luciferase units (RLUs) were determined from three independent transfections and are presented as the mean+/−SEM.
(§2) Experiments were performed to assess the biological activity of IVMDHT. […] To determine the activity of IVMDHT in activating AR-mediated transcription, CV1 (FIG. 5D) and LNCaP cells (FIG. 5E) were transfected with an androgen-inducible luciferase reporter vector driven by AREs together either with or without the human AR expression vector.

human AR = biological target: T2, human AR (Homo sapiens, UniProt P10275); test: Androgen-inducible (3ARE) luciferase reporter in CV-1 cells transfected with human AR expression vector; format: cell-based; conditions: CV1 cells, 1 nM and 10 nM, 24 hours
T2 construct: expressed in transfected cells; host or cells: CV-1
T2 sequence (P10275 1-920): T1 sequence (P10275 1-920 T878A) with A878T
Description: as §1, §2

endogenous AR [3] = biological target: T1, endogenous AR; test: Androgen-inducible (3ARE) luciferase reporter in LNCaP cells, endogenous AR transcriptional activity; format: cell-based; conditions: no AR expression vector, 1 nM and 10 nM, 24 hours
Description: as §1, §2

AR = biological target: T3, AR (Mus musculus, UniProt P19091); test: microPET imaging in intact and castrated C57/B6 male mice; format: in vivo; conditions: 1.2 MBq intraperitoneal, images at 1, 2 and 6 hours
T3 construct: from tissue; host or cells: living C57/B6 male mice, intact or castrated; prostate and other organs
T3 sequence (P19091 1-899): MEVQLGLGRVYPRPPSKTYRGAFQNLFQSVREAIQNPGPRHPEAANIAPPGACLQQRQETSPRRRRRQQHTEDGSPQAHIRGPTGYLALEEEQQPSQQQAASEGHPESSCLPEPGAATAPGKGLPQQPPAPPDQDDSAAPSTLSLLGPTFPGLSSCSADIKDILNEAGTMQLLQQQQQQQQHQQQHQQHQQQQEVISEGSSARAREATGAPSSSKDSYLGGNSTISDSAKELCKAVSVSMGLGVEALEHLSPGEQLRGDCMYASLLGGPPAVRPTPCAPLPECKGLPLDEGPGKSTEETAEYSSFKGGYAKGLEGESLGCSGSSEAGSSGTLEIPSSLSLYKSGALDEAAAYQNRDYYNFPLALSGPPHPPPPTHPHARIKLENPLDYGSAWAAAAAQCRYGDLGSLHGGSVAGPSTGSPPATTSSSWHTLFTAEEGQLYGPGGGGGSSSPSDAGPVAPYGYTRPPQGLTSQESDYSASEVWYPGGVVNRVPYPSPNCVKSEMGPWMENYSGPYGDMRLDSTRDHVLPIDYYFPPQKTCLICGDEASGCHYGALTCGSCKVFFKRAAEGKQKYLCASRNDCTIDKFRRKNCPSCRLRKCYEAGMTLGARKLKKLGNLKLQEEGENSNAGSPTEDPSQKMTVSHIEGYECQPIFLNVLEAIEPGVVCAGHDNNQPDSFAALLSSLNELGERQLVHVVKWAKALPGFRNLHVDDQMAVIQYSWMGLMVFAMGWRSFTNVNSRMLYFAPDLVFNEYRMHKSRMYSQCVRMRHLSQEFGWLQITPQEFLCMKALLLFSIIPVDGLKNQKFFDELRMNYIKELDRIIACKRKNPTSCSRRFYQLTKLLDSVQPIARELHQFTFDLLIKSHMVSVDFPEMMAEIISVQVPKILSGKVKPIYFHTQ
Description: FIGS. 6A-6E. The androgen analog ^124IVMDHT was intravenously injected into the tail-vein of intact (FIG. 6A) and castrated mice (FIG. 6B) and imaged at 1 hour (FIG. 6A panel 1, FIG. 6B panel 1), 2 hours (FIG. 6A panel 2, FIG. 6B panel 2) and 6 hours (FIG. 6A panel 3, FIG. 6B panel 3). […] The mice were then analyzed at 1 hour (FIG. 6D panel 1, FIG. 6E panel 1), 2 hour (FIG. 6D panel 2, FIG. 6E panel 2) and 6 hours (FIG. 6D panel 3, FIG. 6E panel 3). Positive images are shown with arrows.
In this example, microPET imaging and biodistribution assays will be performed using three available and biologically relevant animal models to fully examine the specific binding affinity of IVMDHT with the AR in vivo. […] Tissue samples were weighed and counted and the results expressed as % ID/g and total counts per organ. […] The biodistribution results will be analyzed in prostate and other non-AR enrich tissues from intact and castrated mice to determine specific uptake of ^124IVMDHT.
To determine the specific binding affinity of IVMDHT with the AR in vivo, microPET imaging and biodistribution assays were performed. The binding specificity of ^124IVMDHT in 4-month-old castrated and intact C57/B6 male mice (n=4 per group) was evaluated. […]
Using a similar experimental approach, IVNDHT was assessed in C57/B6 male mice. […] The intake rate of ^124IVNDHT was further assessed by intraperitoneal injection. […]

SMILES	half-life [1]	nuclear location of the AR protein (endogenous AR [2])	AR-mediated luciferase activity (human AR)	AR-mediated luciferase activity (endogenous AR [3])	microPET signal in the vicinity of the bladder/prostate (AR)
C[C@]12CCC(=O)C[C@@H]1C[C@@H](/C=C/I)[C@@H]1[C@@H]2CC[C@]2(C)[C@@H](O)CC[C@@H]12 [IVDHT, 7α-(E-2′-iodovinyl)-5α-dihydrotestosterone]	~1.5 h				
C[C@]12CCC(=O)C[C@@H]1C[C@@H](/C=C/I)[C@@H]1[C@@H]2CC[C@@]2(C)[C@H]1CC[C@]2(C)O [IVMDHT, 7α-(E-2′-iodovinyl)-17α-methyl-5α-dihydrotestosterone]	~1.5 h	uniform nuclear staining of the AR protein	increase in AR-mediated luciferase activity	increase in AR-mediated luciferase activity	low dosage and intraperitoneal injections extend the specific intake
C[C@]12CC[C@@H]3C4CCC(=O)C[C@@H]4C[C@@H](/C=C/I)[C@H]3[C@@H]1CC[C@@H]2O (stereo partly drawn) [IVNDHT, 7α-(E-2′-iodovinyl)-19-nor-5α-dihydrotestosterone]	~1.5 h				
